Values of other authors in patent publication US20230270982A1, “DEVICES FOR REGIO-SPECIFIC RELEASE OF CARRIED DRUG AT ILEOCECAL REGION” (Teva Pharmaceutical Industries Ltd., priority 2020, published 2023).

Tests used:
[1] = oral ester prodrug; extensive intestinal esterase degradation
[2] = tested on: inflammatory bowel disease in mice; conditions: given topically

For `CC(C)OC(=O)OCOP(=O)(CO[C@H](C)Cn1cnc2c(N)ncnc21)OCOC(=O)OC(C)C` [Tenofovir disoproxil], the “bioavailability of the prodrug” value [1] is given as “about 30%”.

For glatiramer acetate, the “treating UC” value [2] is given as “effective”.
